# Laboratory results reported in US11820729B2 (Johnson & Johnson Consumer Inc., priority 2014, dated 2023).
# Key:
# S. mutans biofilm = experiment: S. mutans single species kill assay (in-vitro biofilm model); assay type: cell-based; conditions: simple solution formulas (Table 13), 30 second treatment
# Method: The formulations listed in Example 7 were prepared and tested using an in-vitro single species S. mutans biofilm model. A 24-hour S. mutans biofilm is grown on a polystyrene peg plate (96 pegs, N=6 per test group). The pegs were subsequently treated for thirty seconds with each of formulations H and I, as well as positive and negative controls. The treatment is applied as a single thirty (30) second treatment. The positive control is a commercially available essential oil mouth rinse. The negative control is sterile water. After treatment the biofilm is neutralized and rinsed. The biofilm is harvested via sonication using a Misonix Ultrasonic Liquid Processor (Farmingdale, N.Y.). Using a Celsis Rapid Detection RapiScreen kit (Celsis International PLC, Chicago), the bacteria are lysed with Celsis Luminex and then the adenosine triphosphate (ATP) from the lysed bacteria is measured using the bioluminescence marker LB960 Microplate Luminometer supplied by Berthold (Wildbad, Germany). Data are reported in log RLU (relative light units) where decreasing log RLUs indicates fewer viable bacteria remaining on the biofilm substrate.
# [1] = tested on: 16-hour salivary biofilm on pellicle coated hydroxyapatite pegs; experiment: Prevention assay: prevention of bacterial attachment to pellicle coated hydroxyapatite pegs, ATP bioluminescence; assay type: cell-based; conditions: for prevention of bacterial attachment in alcohol free full formulations: Table 15 formulations, water as the only solvent; for prevention of bacterial attachment in alcohol-free full formulations: Table 17 formulations, water and propylene glycol as solvents; for ability to prevent bacterial attachment / preventing bacterial attachment the best: simple solution solvent base formulas (Table 11)
# Method: The formulations in Examples 2-4, 6, 8 and 9 were prepared and test for prevention of bacterial attachment using the prevention assay. In this assay hydroxyapatite-coated polystyrene peg plate (96 pegs, N=8 per group) was exposed to saliva for one minute to form a pellicle at a temperature of 35 C. Then, for each formulation, eight pegs (N=8) were pre-treated for ten minutes with the formulation using an orbital shaker set to 500 RPM at room temperature. As a negative control, eight pegs (N=8) were pre-treated for ten minutes with sterile water. Next, a 16-hour salivary biofilm was grown on these polystyrene peg plates at a temperature of 35 C.
# After all treatments were complete, the biofilm from each peg was neutralized and rinsed. The biofilm was harvested via sonication using a Q-Sonica Q700 Ultrasonic Liquid Processor with 431MP4-00 microplate horn Damper and 0.5:1 reverse gain booster (Q-Sonica, Newtown, Conn.). Using a Celsis Rapid Detection RapiScreen kit (Celsis International PLC, Chicago, Ill.), the bacteria were lysed with Celsis Luminex and then the adenosine triphosphate (ATP) from the lysed bacteria was measured using the bioluminescence marker Celcis Luminate and a Centro LB 960 Microplate Luminometer supplied by Berthold Technologies (Wildbad, Germany). Data were reported in log RLU (relative light units) where decreasing log RLUs indicated fewer viable bacteria remained on the biofilm substrate. The log RLUs for the prevention assay are shown on Tables 2, 4, 6, 10, 14, and 16.
# [2] = HPLC quantification of compound remaining after storage at 50° C.; assay type: physicochemical
# Method: Briefly, formulations containing either LAE or any of the 26 compounds and standards are diluted into a solution of 50% acetonitrile and 50% water. They are evaluated on an Agilent HPLC using a Zorbax ion exchange column. In the method, 10 uL of the sample is withdrawn and ran through the HPLC with a 40% potassium phosphate (molarity at pH 3.0) 60% acetonitrile mobile phase. […] The molecule peak is auto integrated using the Online Agilent HPLC software. Comparisons are made to the standard to identify the % of compound remaining following storage.
structural stability via HPLC in simple solution formulations ([2]; storage at 50° C. for 4 and 8 weeks (Table 13 formulas)),"% of molecule maintained out to 8 weeks when stored at 50° C. ([2]; 8 weeks, 50° C., HPLC, formulations of Table 7)","stability in an alcohol-free formulation ([2]; storage at 50° C., HPLC)",Compound,log reduction in S. mutans (S. mutans biofilm),prevention of bacterial attachment in alcohol free full formulations [1],prevention of bacterial attachment in alcohol-free full formulations [1],ability to prevent bacterial attachment [1],preventing bacterial attachment the best [1],"effect of presence of essential oils (EOs) on prevention of bacterial attachment ([1]; 0.15 wt % compound 9, Table 6)","effect of surfactant on prevention of bacterial attachment ([1]; 0.15 wt % compound 9, Table 6)","prevention of bacterial attachment in full formula ([1]; 0.15 wt % in alcohol free base, compositions K-R)",efficacy at preventing bacterial attachment ([1]; 0.15 wt % in water),"prevention of bacterial attachment compared with LAE ([1]; 0.15 wt %, 21.6% alcohol and water-based solution)",most effective concentration for prevention of bacterial attachment ([1]; compound 9 in simple water solution (Table 1 compositions)),"concentration effect on prevention of bacterial attachment ([1]; compound 9 in water, 0.01-0.4 w/w %)"
,,,"CCCCCCCC(=O)NC(CCCNC(=N)N)C(=O)NCCCCCC (stereo not drawn) [Compound 3, [amino({[4-(hexylcarbamoyl)-4-octanamidobutyl]amino})methylidene]azanium]",do not Result in More than a One Log Reduction in S. mutans,Prevent Bacterial Attachment,Prevent Bacterial Attachment,have the ability to prevent bacterial attachment,preventing bacterial attachment the best,,,,,,,
,,,"CCCCCCCCCCCC(=O)NC(CCCN)C(=O)NCC (stereo not drawn) [Compound 12, N-[4-amino-1-(ethylcarbamoyl)butyl]dodecanamide]",do not Result in More than a One Log Reduction in S. mutans,Prevent Bacterial Attachment,Prevent Bacterial Attachment,have the ability to prevent bacterial attachment,preventing bacterial attachment the best,,,,,,,
,,,[amino({[4-dodecanamido-4-(methylcarbamoyl)butyl]amino})methylidene]azanium [Compound 4],do not Result in More than a One Log Reduction in S. mutans,,,have the ability to prevent bacterial attachment,,,,,,,,
significant decrease in peak area,,,"CCCCCCCC(=O)NC(CCCNC(=N)N)C(=O)NCC (stereo not drawn) [Compound 2, [amino({[4-(ethylcarbamoyl)-4-octanamidobutyl]amino})methylidene]azanium]",do not Result in More than a One Log Reduction in S. mutans,Prevent Bacterial Attachment,Prevent Bacterial Attachment,have the ability to prevent bacterial attachment,preventing bacterial attachment the best,,,,,,,
,,,"CCCCCCCC(=O)NC(CCCNC(=N)N)C(=O)NC (stereo not drawn) [Compound 1, [amino({[4-(methylcarbamoyl)-4-octanamidobutyl]amino})methylidene]azanium]",do not Result in More than a One Log Reduction in S. mutans,Prevent Bacterial Attachment,Prevent Bacterial Attachment,have the ability to prevent bacterial attachment,preventing bacterial attachment the best,,,,,,,
,,,CCCCCCCCCCCC(=O)NC(CCCNC(=N)N)C(=O)NC (stereo not drawn) [Compound 6],do not Result in More than a One Log Reduction in S. mutans,Prevent Bacterial Attachment,Prevent Bacterial Attachment,have the ability to prevent bacterial attachment,preventing bacterial attachment the best,,,,,,,
,at least 90%,Maintains Stability,"CCCCCCCCCCCC(=O)NC(CCCNC(=N)N)C(=O)NCC (stereo not drawn) [Compound 9, [amino({[4-dodecanamido-4-(ethylcarbamoyl)butyl]amino})methylidene]azanium]",do not Result in More than a One Log Reduction in S. mutans,Prevent Bacterial Attachment,Prevent Bacterial Attachment,have the ability to prevent bacterial attachment,preventing bacterial attachment the best,has no effect,has a major effect,Prevents Bacterial Attachment in Full Formula,demonstrated efficacy at preventing bacterial attachment,equally as efficacious as LAE,0.3 wt %,dose dependent response
